# Results published in paper PMC11053077, “HBO1 catalyzes lysine lactylation and mediates histone H3K9la to regulate gene transcription” (Nature Communications, 2024).
# pKd: −log10 of the molar value.
# What was measured:
# HBO1 [1] = target: T1, HBO1 (Homo sapiens, UniProt O95251); test: isothermal titration calorimetry (supported by in vitro histone acetylation assay with purified HBO1); assay type: binding
# T1 construct: gene KAT7; HBO1 (336-611), acyltransferase/catalytic domain, purified from E. coli
# T1 sequence (O95251 336-611): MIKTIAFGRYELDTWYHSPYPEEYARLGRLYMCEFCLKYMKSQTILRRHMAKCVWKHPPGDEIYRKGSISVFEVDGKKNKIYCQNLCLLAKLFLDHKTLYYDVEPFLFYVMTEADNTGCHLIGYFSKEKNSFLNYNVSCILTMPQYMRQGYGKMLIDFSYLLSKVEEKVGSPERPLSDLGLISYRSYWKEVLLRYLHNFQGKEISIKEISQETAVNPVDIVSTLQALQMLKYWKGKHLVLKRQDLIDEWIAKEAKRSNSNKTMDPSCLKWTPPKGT
# HBO1 [2] = target: T1, HBO1; test: isothermal titration calorimetry (supported by in vitro histone lactylation assay with purified HBO1); assay type: binding
Compound,pKd (HBO1 [1]),pKd (HBO1 [2])
CC(=O)SCCNC(=O)CCNC(=O)[C@H](O)C(C)(C)COP(=O)(O)OP(=O)(O)OC[C@H]1O[C@@H](n2cnc3c(N)ncnc32)[C@H](O)[C@@H]1OP(=O)(O)O [acetyl-CoA],5.84,
C[C@H](O)C(=O)SCCNC(=O)CCNC(=O)[C@H](O)C(C)(C)COP(=O)(O)OP(=O)(O)OC[C@H]1O[C@@H](n2cnc3c(N)ncnc32)[C@H](O)[C@@H]1OP(=O)(O)O [lactyl-CoA],,6.28
